Measured values reported in patent US8802895B2, “Amide derivatives of benzene-sulfonanilide, pharmaceutical composition thereof and method for cancer treatment using the same” (Cleveland State University, priority 2010, dated 2014).

How the values were obtained:
Type in all cases: cell-based
HL-60(TB) = assay: NCIDTP 60 cancer cell lines screening, Leukemia panel
K-562 = assay: as above
HOP-92 = assay: NCIDTP 60 cancer cell lines screening, Non-Small Cell Lung Cancer panel
NCI-H23 = assay: as above
KM12 = assay: NCIDTP 60 cancer cell lines screening, Colon Cancer panel
SF-268 = assay: NCIDTP 60 cancer cell lines screening, CNS Cancer panel
LOX IMVI = assay: NCIDTP 60 cancer cell lines screening, Melanoma panel
M14 = assay: as above
SK-MEL-5 = assay: as above
UACC-257 = assay: as above
OVCAR-5 = assay: NCIDTP 60 cancer cell lines screening, Ovarian Cancer panel
NCI/ADR-RES = assay: as above
SK-OV-3 = assay: as above
A498 = assay: NCIDTP 60 cancer cell lines screening, Renal Cancer panel
PC-3 = assay: NCIDTP 60 cancer cell lines screening, Prostate Cancer panel
T-47D = assay: NCIDTP 60 cancer cell lines screening, Breast Cancer panel
MDA-MB-468 = assay: as above

Cc1ccc(C)c(COc2cc(NC(=O)c3ccc4c(c3)OCO4)ccc2N(C)S(C)(=O)=O)c1 [Compound #10, Benzo[1,3]dioxole-5-carboxylic acid [3-(2,5-dimethyl-benzyloxy)-4-(methanesulfonyl-methyl-amino)-phenyl]-amide]
TGI (HL-60(TB); HL-60(TB)): 9.67E−8 Molar
Percent Growth (HL-60(TB); HL-60(TB), Log10 Concentration −4.0 Molar): −20%
Percent Growth (HL-60(TB); HL-60(TB), Log10 Concentration −5.0 Molar): −20%
Percent Growth (HL-60(TB); HL-60(TB), Log10 Concentration −6.0 Molar): −12%
Percent Growth (HL-60(TB); HL-60(TB), Log10 Concentration −7.0 Molar): −1%
Percent Growth (HL-60(TB); HL-60(TB), Log10 Concentration −8.0 Molar): 89%
CC50 (HL-60(TB); Homo sapiens, HL-60, read-out: LC50): > 100000 nM
GI50 (HL-60(TB); Homo sapiens, HL-60(TB)): 26.9 nM
CC50 (K-562; Homo sapiens, K562, read-out: LC50): > 100000 nM
GI50 (K-562; Homo sapiens, K562, K-562): 40.3 nM
TGI (K-562; K-562): >1.00E−4 Molar
Percent Growth (K-562; K-562, Log10 Concentration −4.0 Molar): 9%
Percent Growth (K-562; K-562, Log10 Concentration −5.0 Molar): 9%
Percent Growth (K-562; K-562, Log10 Concentration −6.0 Molar): 11%
Percent Growth (K-562; K-562, Log10 Concentration −7.0 Molar): 20%
Percent Growth (K-562; K-562, Log10 Concentration −8.0 Molar): 96%
TGI (HOP-92; HOP-92): >1.00E−4 Molar
Percent Growth (HOP-92; HOP-92, Log10 Concentration −4.0 Molar): 37%
Percent Growth (HOP-92; HOP-92, Log10 Concentration −5.0 Molar): 39%
Percent Growth (HOP-92; HOP-92, Log10 Concentration −6.0 Molar): 62%
Percent Growth (HOP-92; HOP-92, Log10 Concentration −7.0 Molar): 62%
Percent Growth (HOP-92; HOP-92, Log10 Concentration −8.0 Molar): 78%
GI50 (HOP-92; Homo sapiens, HOP-92): 32.2 nM
CC50 (HOP-92; Homo sapiens, HOP-92, read-out: LC50): > 100000 nM
GI50 (NCI-H23; Homo sapiens, NCI-H23): 162 nM
CC50 (NCI-H23; Homo sapiens, NCI-H23, read-out: LC50): > 100000 nM
TGI (NCI-H23; NCI-H23): >1.00E−4 Molar
Percent Growth (NCI-H23; NCI-H23, Log10 Concentration −4.0 Molar): 2%
Percent Growth (NCI-H23; NCI-H23, Log10 Concentration −5.0 Molar): 3%
Percent Growth (NCI-H23; NCI-H23, Log10 Concentration −6.0 Molar): 5%
Percent Growth (NCI-H23; NCI-H23, Log10 Concentration −7.0 Molar): 62%
Percent Growth (NCI-H23; NCI-H23, Log10 Concentration −8.0 Molar): 97%
GI50 (KM12; Homo sapiens, KM12): 85.5 nM
CC50 (KM12; Homo sapiens, KM12, read-out: LC50): > 100000 nM
TGI (KM12; KM12): 1.13E−6 Molar
Percent Growth (KM12; KM12, Log10 Concentration −4.0 Molar): −29%
Percent Growth (KM12; KM12, Log10 Concentration −5.0 Molar): −19%
Percent Growth (KM12; KM12, Log10 Concentration −6.0 Molar): 1%
Percent Growth (KM12; KM12, Log10 Concentration −7.0 Molar): 47%
Percent Growth (KM12; KM12, Log10 Concentration −8.0 Molar): 93%
GI50 (SF-268; Homo sapiens, SF-268): 288 nM
CC50 (SF-268; Homo sapiens, SF-268, read-out: LC50): > 100000 nM
TGI (SF-268; SF-268): >1.00E−4 Molar
Percent Growth (SF-268; SF-268, Log10 Concentration −4.0 Molar): 16%
Percent Growth (SF-268; SF-268, Log10 Concentration −5.0 Molar): 9%
Percent Growth (SF-268; SF-268, Log10 Concentration −6.0 Molar): 19%
Percent Growth (SF-268; SF-268, Log10 Concentration −7.0 Molar): 77%
Percent Growth (SF-268; SF-268, Log10 Concentration −8.0 Molar): 93%
TGI (LOX IMVI): >1.00E−4 Molar
GI50 (LOX IMVI; Homo sapiens): 66.6 nM
CC50 (LOX IMVI; Homo sapiens, read-out: LC50): > 100000 nM
Percent Growth (LOX IMVI; Log10 Concentration −4.0 Molar): 26%
Percent Growth (LOX IMVI; Log10 Concentration −5.0 Molar): 21%
Percent Growth (LOX IMVI; Log10 Concentration −6.0 Molar): 13%
Percent Growth (LOX IMVI; Log10 Concentration −7.0 Molar): 41%
Percent Growth (LOX IMVI; Log10 Concentration −8.0 Molar): 91%
GI50 (M14; Homo sapiens, M14): 75.7 nM
CC50 (M14; Homo sapiens, M14, read-out: LC50): > 100000 nM
TGI (M14; M14): 6.69E−7 Molar
Percent Growth (M14; M14, Log10 Concentration −4.0 Molar): −29%
Percent Growth (M14; M14, Log10 Concentration −5.0 Molar): −45%
Percent Growth (M14; M14, Log10 Concentration −6.0 Molar): −9%
Percent Growth (M14; M14, Log10 Concentration −7.0 Molar): 45%
Percent Growth (M14; M14, Log10 Concentration −8.0 Molar): 90%
GI50 (SK-MEL-5; Homo sapiens, SK-MEL-5): 253 nM
CC50 (SK-MEL-5; Homo sapiens, SK-MEL-5, read-out: LC50): 34100 nM
TGI (SK-MEL-5; SK-MEL-5): 1.65E−6 Molar
Percent Growth (SK-MEL-5; SK-MEL-5, Log10 Concentration −4.0 Molar): −57%
Percent Growth (SK-MEL-5; SK-MEL-5, Log10 Concentration −5.0 Molar): −42%
Percent Growth (SK-MEL-5; SK-MEL-5, Log10 Concentration −6.0 Molar): 12%
Percent Growth (SK-MEL-5; SK-MEL-5, Log10 Concentration −7.0 Molar): 76%
Percent Growth (SK-MEL-5; SK-MEL-5, Log10 Concentration −8.0 Molar): 90%
GI50 (UACC-257; Homo sapiens, UACC-257): 144 nM
CC50 (UACC-257; Homo sapiens, UACC-257, read-out: LC50): > 100000 nM
TGI (UACC-257; UACC-257): >1.00E−4 Molar
Percent Growth (UACC-257; UACC-257, Log10 Concentration −4.0 Molar): 13%
Percent Growth (UACC-257; UACC-257, Log10 Concentration −5.0 Molar): 29%
Percent Growth (UACC-257; UACC-257, Log10 Concentration −6.0 Molar): 32%
Percent Growth (UACC-257; UACC-257, Log10 Concentration −7.0 Molar): 53%
Percent Growth (UACC-257; UACC-257, Log10 Concentration −8.0 Molar): 88%
GI50 (OVCAR-5; Homo sapiens, OVCAR-5): 538 nM
CC50 (OVCAR-5; Homo sapiens, OVCAR-5, read-out: LC50): > 100000 nM
TGI (OVCAR-5; OVCAR-5): >1.00E−4 Molar
Percent Growth (OVCAR-5; OVCAR-5, Log10 Concentration −4.0 Molar): 25%
Percent Growth (OVCAR-5; OVCAR-5, Log10 Concentration −5.0 Molar): 33%
Percent Growth (OVCAR-5; OVCAR-5, Log10 Concentration −6.0 Molar): 37%
Percent Growth (OVCAR-5; OVCAR-5, Log10 Concentration −7.0 Molar): 85%
Percent Growth (OVCAR-5; OVCAR-5, Log10 Concentration −8.0 Molar): 85%
TGI (NCI/ADR-RES): 4.07E−7 Molar
GI50 (NCI/ADR-RES; Homo sapiens): 56.2 nM
CC50 (NCI/ADR-RES; Homo sapiens, read-out: LC50): > 100000 nM
Percent Growth (NCI/ADR-RES; Log10 Concentration −4.0 Molar): −20%
Percent Growth (NCI/ADR-RES; Log10 Concentration −5.0 Molar): −12%
Percent Growth (NCI/ADR-RES; Log10 Concentration −6.0 Molar): −22%
Percent Growth (NCI/ADR-RES; Log10 Concentration −7.0 Molar): 34%
Percent Growth (NCI/ADR-RES; Log10 Concentration −8.0 Molar): 98%
GI50 (SK-OV-3; Homo sapiens, SK-OV-3): 285 nM
CC50 (SK-OV-3; Homo sapiens, SK-OV-3, read-out: LC50): > 100000 nM
TGI (SK-OV-3; SK-OV-3): >1.00E−4 Molar
Percent Growth (SK-OV-3; SK-OV-3, Log10 Concentration −4.0 Molar): 5%
Percent Growth (SK-OV-3; SK-OV-3, Log10 Concentration −5.0 Molar): 5%
Percent Growth (SK-OV-3; SK-OV-3, Log10 Concentration −6.0 Molar): 8%
Percent Growth (SK-OV-3; SK-OV-3, Log10 Concentration −7.0 Molar): 85%
Percent Growth (SK-OV-3; SK-OV-3, Log10 Concentration −8.0 Molar): 99%
TGI (A498; A498): 8.53E−7 Molar
Percent Growth (A498; A498, Log10 Concentration −4.0 Molar): −5%
Percent Growth (A498; A498, Log10 Concentration −5.0 Molar): −7%
Percent Growth (A498; A498, Log10 Concentration −6.0 Molar): −4%
Percent Growth (A498; A498, Log10 Concentration −7.0 Molar): 55%
Percent Growth (A498; A498, Log10 Concentration −8.0 Molar): 86%
GI50 (A498; Homo sapiens, A498): 122 nM
CC50 (A498; Homo sapiens, A498, read-out: LC50): > 100000 nM
GI50 (PC-3; Homo sapiens, PC-3): 67.7 nM
CC50 (PC-3; Homo sapiens, PC-3, read-out: LC50): > 100000 nM
TGI (PC-3; PC-3): >1.00E−4 Molar
Percent Growth (PC-3; PC-3, Log10 Concentration −4.0 Molar): 21%
Percent Growth (PC-3; PC-3, Log10 Concentration −5.0 Molar): 20%
Percent Growth (PC-3; PC-3, Log10 Concentration −6.0 Molar): 21%
Percent Growth (PC-3; PC-3, Log10 Concentration −7.0 Molar): 41%
Percent Growth (PC-3; PC-3, Log10 Concentration −8.0 Molar): 92%
CC50 (T-47D; Homo sapiens, T47D, read-out: LC50): > 100000 nM
GI50 (T-47D; Homo sapiens, T47D, T-47D): 682 nM
TGI (T-47D; T-47D): >1.00E−4 Molar
Percent Growth (T-47D; T-47D, Log10 Concentration −4.0 Molar): 27%
Percent Growth (T-47D; T-47D, Log10 Concentration −5.0 Molar): 29%
Percent Growth (T-47D; T-47D, Log10 Concentration −6.0 Molar): 45%
Percent Growth (T-47D; T-47D, Log10 Concentration −7.0 Molar): 77%
Percent Growth (T-47D; T-47D, Log10 Concentration −8.0 Molar): 89%
GI50 (MDA-MB-468; Homo sapiens, MDA-MB-468): 155 nM
CC50 (MDA-MB-468; Homo sapiens, MDA-MB-468, read-out: LC50): 19900 nM
TGI (MDA-MB-468; MDA-MB-468): 4.01E−7 Molar
Percent Growth (MDA-MB-468; MDA-MB-468, Log10 Concentration −4.0 Molar): −56%
Percent Growth (MDA-MB-468; MDA-MB-468, Log10 Concentration −5.0 Molar): −47%
Percent Growth (MDA-MB-468; MDA-MB-468, Log10 Concentration −6.0 Molar): −48%
Percent Growth (MDA-MB-468; MDA-MB-468, Log10 Concentration −7.0 Molar): 73%
Percent Growth (MDA-MB-468; MDA-MB-468, Log10 Concentration −8.0 Molar): 85%
